Data on 11 compounds can be found in patent US7951815B2, “Substituted 1,4,8-triazaspiro [4,5]decan-2-one compounds” (Gruenenthal GmbH, priority 2004, dated 2011).

The term inhibition denotes the relative decrease from the control value, in per cent.

For one assay, the system named is male NMRI mice. In words: Analgesic test using the phenylquinone-induced writhing test on mice. As to conditions: 10 mg/kg intravenous. It is filed as in vivo. As to the method:
The analysis of analgesic activity is carried out using the phenylquinone-induced writhing assay in mice, modified as described in the article by I. C. Hendershot and J. Forsaith ((1959) in J. Pharmacol. Exp. Ther. 125, 237-240).
For the present purpose, male NMRI mice are used having a weight of from 25 to 30 g. Groups of 10 animals per substance dose receive, 10 minutes after an intravenous dose of test substances, an intraperitoneal administration of 0.3 ml/mouse of a 0.02% strength aqueous solution of phenylquinone (phenylbenzoquinone, obtainable from Sigma, Deisenhofen; solution produced with the addition of 5% of ethanol and storage in a water bath at 45° C.). The animals are placed individually in observation cages. Using a pushbutton counter, the number of pain-induced stretching movements (so-called writhing reactions=straightening of the body accompanied by stretching of the rear extremities) was counted over a period of from 5 to 20 minutes following the administration of phenylquinone. The control is provided by animals receiving only physiological saline. All substances are tested using the standard dosage of 10 mg/kg.

Assay [1] relates to batrachotoxin (BTX) binding site of the sodium channel. In words: Affinity to the batrachotoxin (BTX) binding site of the sodium channel. The note with it: rat cerebrocortex synaptosomes, test concentration not given.
Another assay concerns the target T1, 5-HT transporter (Rattus norvegicus, UniProt P31652).
T1 construct: synaptosomes of rat brain areas are freshly isolated; from tissue; host or cells: rat brain synaptosomes (P2 fraction) from marrow and pons
In words: Inhibition of 5-HT uptake in rat brain synaptosomes. The format is biochemical. As to conditions: Table III, rat, 1 μM; for inhibition at 1 µM: read-out: Uptake 5-HT, % inhibition.

Another assay deals with NA transporter. In words: Inhibition of noradrenaline uptake in rat brain synaptosomes. The format is biochemical. As to conditions: Table III.

T1 sequence (P31652 whole entry): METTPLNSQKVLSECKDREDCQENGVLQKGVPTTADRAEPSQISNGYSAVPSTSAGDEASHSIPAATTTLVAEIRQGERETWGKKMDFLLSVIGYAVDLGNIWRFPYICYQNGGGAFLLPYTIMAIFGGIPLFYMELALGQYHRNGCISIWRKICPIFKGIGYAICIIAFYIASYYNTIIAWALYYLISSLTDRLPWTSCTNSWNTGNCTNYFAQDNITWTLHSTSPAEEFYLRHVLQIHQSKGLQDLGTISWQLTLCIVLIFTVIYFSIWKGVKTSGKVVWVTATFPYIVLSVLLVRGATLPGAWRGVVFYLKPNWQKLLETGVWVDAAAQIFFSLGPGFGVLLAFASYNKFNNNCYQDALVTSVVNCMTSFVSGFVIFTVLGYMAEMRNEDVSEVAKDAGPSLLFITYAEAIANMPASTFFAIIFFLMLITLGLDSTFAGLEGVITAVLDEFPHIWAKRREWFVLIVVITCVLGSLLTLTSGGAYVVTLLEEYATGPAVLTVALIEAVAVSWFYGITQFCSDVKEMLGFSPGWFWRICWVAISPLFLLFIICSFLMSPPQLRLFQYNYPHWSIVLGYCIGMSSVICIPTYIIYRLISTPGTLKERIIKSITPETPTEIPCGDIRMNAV

For `CCC(CC)C(=O)N1CCC2(CC1)NC(=O)[C@H](Cc1ccccc1)N2.Cl` [Example 2, 3-(S)-Benzyl-8-(2-ethylbutyryl)-1,4,8-triazaspiro[4,5]decan-2-one hydrochloride], the “% Inhibition of the writhing reaction (Dosage in mg/kg intravenous)” value (“% Inhibition of the writhing reaction” for short) in the assay with male NMRI mice is 51 (10) %.

For the compound `Cl.O=C(c1ccc(C(F)(F)F)c(F)c1)N1CCC2(CC1)N[C@@H](Cc1ccccc1)C(=O)N2Cc1ccccc1` [Example 53, 1,3-(S)-dibenzyl-8-(3-fluoro-4-trifluoromethylbenzoyl)-1,4,8-triazaspiro[4,5]decan-2-one hydrochloride], in assay [1] (Table II), the BTX inhibition is reported as 48. Moreover, the “% Inhibition of the writhing reaction” value in the assay on male NMRI mice is listed as 30 (10) %.

The compound `Cl.O=C(COc1ccc(Cl)cc1)N1CCC2(CC1)N[C@@H](Cc1ccccc1)C(=O)N2Cc1ccccc1` [Example 55, 1,3-(S)-dibenzyl-8-[2-(4-chlorophenoxy)acetyl]-1,4,8-triazaspiro[4,5]decan-2-one hydrochloride] had a BTX inhibition in assay [1] (Table II) of 64. For the same compound, in the assay on male NMRI mice, the “% Inhibition of the writhing reaction” value is listed as 45 (10) %.

In assay [1] (Table III), `CCOC(=O)CN1C(=O)C(Cc2ccccc2)NC12CCN(C(=O)c1ccc(-c3ccccc3)cc1)CC2` (centres unmarked) [Example 266, Ethyl [3-benzyl-8-(biphenyl-4-carbonyl)-2-oxo-1,4,8-triazaspiro[4,5]dec-1-yl]acetate] came in with a BTX inhibition of 57. Besides, on 5-HT transporter, the inhibition at 1 µM was 94%. Besides, in the assay with NA transporter, the “Uptake (NA), rat, 10 μM, % inhibition” value is 38%.

Compound `CCOC(=O)CCC(=O)N1CCC2(CC1)NCC(=O)N2Cc1ccccc1F` [Example 270, Ethyl 4-[1-(2-fluorobenzyl)-2-oxo-1,4,8-triazaspiro[4,5]dec-8-yl]-4-oxo-butanate] showed a BTX inhibition in assay [1] (Table III) of 33. Moreover, the inhibition at 1 µM on 5-HT transporter was found to be 31%. Besides, in the assay on NA transporter, the “Uptake (NA), rat, 10 μM, % inhibition” value was 37%.

Consider `COc1ccccc1C(=O)N1CCC2(CC1)NC(Cc1ccccc1)C(=O)N2Cc1ccccc1F` (centres unmarked) [Example 274, 3-Benzyl-1-(2-fluorobenzyl)-8-(2-methoxybenzoyl)-1,4,8-triazaspiro[4,5]decan-2-one], for which the BTX inhibition in assay [1] (Table III) was found to be 85. Moreover, on 5-HT transporter, the inhibition at 1 µM worked out at 97%. For the same compound, in the assay with NA transporter, the “Uptake (NA), rat, 10 μM, % inhibition” value came to 64%.

`CCOc1ccccc1C(=O)N1CCC2(CC1)NCC(=O)N2Cc1ccccc1F` [Example 280, 8-(2-Ethoxybenzoyl)-1-(2-fluorobenzyl)-1,4,8-triazaspiro[4,5]decan-2-one]: the BTX inhibition in assay [1] (Table III) is recorded as 30. Also, the inhibition at 1 µM at 5-HT transporter was determined as 60%. Further, the “Uptake (NA), rat, 10 μM, % inhibition” value with NA transporter is on record as 35%.

`C=CCCC(=O)N1CCC2(CC1)NCC(=O)N2Cc1ccccc1F` [Example 287, 1-(2-Fluorobenzyl)-8-pent-4-enoyl-1,4,8-triazaspiro[4,5]decan-2-one]: in assay [1] (Table III), the BTX inhibition came out at 32. On 5-HT transporter, the inhibition at 1 µM came to 41%. For the same compound, in the assay on NA transporter, the “Uptake (NA), rat, 10 μM, % inhibition” value worked out at 41%.

Compound `CSCCC1NC2(CCN(C(=O)c3cccnc3Oc3ccccc3)CC2)N(Cc2ccccc2[N+](=O)[O-])C1=O` (centres unmarked) [Example 298, 3-(2-Methylsulfanylethyl)-1-(2-nitrobenzyl)-8-(2-phenoxypyridin-3-carbonyl)-1,4,8-triazaspiro[4,5]decan-2-one] registered a BTX inhibition in assay [1] (Table III) of 48. The inhibition at 1 µM on 5-HT transporter was found to be 34%. Also, in the assay with NA transporter, the “Uptake (NA), rat, 10 μM, % inhibition” value is given as 30%.

For the compound `O=C(c1ccc2nonc2c1)N1CCC2(CC1)NCC(=O)N2Cc1ccccc1F` [Example 304, 8-(Benzo[1,2,5]oxadiazole-5-carbonyl)-1-(2-fluorobenzyl)-1,4,8-triazaspiro[4,5]decan-2-one], the BTX inhibition in assay [1] (Table III) worked out at 33. For the same compound, on 5-HT transporter, the inhibition at 1 µM is 34%. In addition, the “Uptake (NA), rat, 10 μM, % inhibition” value in the assay on NA transporter is 37%.

As to `CCOC(=O)C(C)(C)C(=O)N1CCC2(CC1)NC(CCSC)C(=O)N2Cc1ccccc1[N+](=O)[O-]` (centres unmarked) [Example 331, Ethyl 1,1-dimethyl-2-[3-(2-methylsulfanylethyl)-1-(2-nitrobenzyl)-2-oxo-1,4,8-triazaspiro[4,5]dec-8-yl]-2-oxo-acetate], the BTX inhibition in assay [1] (Table III) is 46. Moreover, on 5-HT transporter, the “Uptake 5-HT, rat, 1 μM, % inhibition” value is on record as 58%. In the assay with NA transporter, the “Uptake (NA), rat, 10 μM, % inhibition” value worked out at 38%.
